Consider 1 compound from patent US20050261472A1, “Binding moieties for fibrin” (Dyax Corp., priority 1999, published 2005).

What is called Kd is a measure of binding affinity in units of concentration.

In one test the target is T1, DD(E) (Homo sapiens, UniProt P02671+P02675+P02679).
T1 construct: host or cells: purchased fibrinogen clotted with thrombin, digested with plasmin, then purified by ammonium sulfate cuts and Sephacryl S200
Nature of the test: dissociation constant against fibrin-derived polypeptide DD(E). It counts as binding. The following applies: read-out: Kd DD(E).

A further test concerns the target T2, fibrinogen (Homo sapiens, UniProt P02671+P02675+P02679).
T2 sequence (P02671 20-644 isoform P02671-2 limits assumed): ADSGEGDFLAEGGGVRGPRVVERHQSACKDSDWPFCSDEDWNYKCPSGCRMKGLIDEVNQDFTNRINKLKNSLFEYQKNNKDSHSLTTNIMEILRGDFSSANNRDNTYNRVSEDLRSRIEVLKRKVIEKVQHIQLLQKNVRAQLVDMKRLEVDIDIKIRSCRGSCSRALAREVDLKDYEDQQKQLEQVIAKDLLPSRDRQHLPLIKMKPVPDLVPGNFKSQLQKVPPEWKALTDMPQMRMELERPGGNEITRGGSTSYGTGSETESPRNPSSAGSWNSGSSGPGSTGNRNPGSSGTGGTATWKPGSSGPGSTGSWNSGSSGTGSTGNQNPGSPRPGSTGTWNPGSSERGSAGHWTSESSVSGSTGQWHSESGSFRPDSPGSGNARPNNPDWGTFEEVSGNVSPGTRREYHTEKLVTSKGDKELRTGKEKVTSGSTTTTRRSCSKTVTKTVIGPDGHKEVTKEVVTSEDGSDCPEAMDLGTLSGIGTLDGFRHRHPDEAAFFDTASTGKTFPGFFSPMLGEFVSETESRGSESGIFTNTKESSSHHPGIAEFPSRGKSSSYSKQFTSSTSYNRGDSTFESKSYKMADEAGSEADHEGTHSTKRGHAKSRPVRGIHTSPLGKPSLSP
T2 sequence (P02675 31-491): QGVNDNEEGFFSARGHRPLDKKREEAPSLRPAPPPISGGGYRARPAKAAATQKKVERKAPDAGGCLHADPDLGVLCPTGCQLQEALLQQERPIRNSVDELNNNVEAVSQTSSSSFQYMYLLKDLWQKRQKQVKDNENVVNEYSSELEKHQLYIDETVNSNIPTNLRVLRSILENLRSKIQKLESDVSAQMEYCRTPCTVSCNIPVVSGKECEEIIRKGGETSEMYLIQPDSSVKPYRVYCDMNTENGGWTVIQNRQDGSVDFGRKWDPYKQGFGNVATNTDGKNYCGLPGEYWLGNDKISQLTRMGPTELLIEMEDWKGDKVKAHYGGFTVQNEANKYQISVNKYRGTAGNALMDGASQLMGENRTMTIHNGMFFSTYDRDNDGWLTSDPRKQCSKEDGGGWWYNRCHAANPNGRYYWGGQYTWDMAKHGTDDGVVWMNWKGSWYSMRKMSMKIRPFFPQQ
T2 sequence (P02679 27-437 isoform P02679-2 limits assumed): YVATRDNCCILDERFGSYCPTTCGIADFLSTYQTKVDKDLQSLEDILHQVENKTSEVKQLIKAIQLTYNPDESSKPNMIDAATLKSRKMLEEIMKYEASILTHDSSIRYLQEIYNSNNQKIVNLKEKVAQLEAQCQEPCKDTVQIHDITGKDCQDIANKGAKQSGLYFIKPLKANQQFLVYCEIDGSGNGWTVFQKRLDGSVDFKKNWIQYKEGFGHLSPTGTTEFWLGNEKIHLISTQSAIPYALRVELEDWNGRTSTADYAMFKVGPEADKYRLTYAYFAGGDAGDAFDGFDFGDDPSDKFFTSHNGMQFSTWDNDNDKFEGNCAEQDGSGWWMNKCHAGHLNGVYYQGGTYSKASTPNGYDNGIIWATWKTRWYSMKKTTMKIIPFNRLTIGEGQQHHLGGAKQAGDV
Nature of the test: binding affinity by equilibrium dialysis. The following applies: 190 μM vs. 2.7 μM. How it is done:
A solution of fibrinogen (10 mg/ml) was mixed with the MR labeled peptide of Example 11 designated Gd-DTPA-Pep1, at concentrations of 10, 50 and 100 μM. The fibrinogen/peptide solution was placed on one side of a dialysis membrane in an equilibrium dialysis apparatus. The solution was allowed to equilibrate with an equal volume of buffer on the opposite side of the membrane.

Molecules are shown by their SMILES.

In the case of `CC(C)C[C@H](NC(=O)[C@@H]1CSSC[C@H](NC(=O)[C@@H]2CCCN2C(=O)[C@H](CC(C)C)NC(=O)C[C@@H](C(=O)O)N(CCN(CC(=O)O)CC(=O)O)CCN(CC(=O)O)CC(=O)O)C(=O)N[C@@H](CC(=O)O)C(=O)N[C@@H](Cc2ccc(O)cc2)C(=O)N[C@@H](Cc2ccc(O)cc2)C(=O)NCC(=O)N[C@@H]([C@@H](C)O)C(=O)N1)C(=O)N[C@@H](CC(=O)O)C(N)=O` [Gd-DTPA-Pep1], the Kd at DD(E) was 2900 nM. Also, at fibrinogen, the “specificity for fibrin over fibrinogen” value is listed as “roughly 70 fold”.
